# Experimental data: US20230167073A1 (Teijin Pharma Limited, priority 2020, published 2023)
# Target: T1, Human TRPC6 (Homo sapiens, UniProt Q9Y210)
# T1 construct: expressed in transfected cells
# T1 sequence (Q9Y210 1-931): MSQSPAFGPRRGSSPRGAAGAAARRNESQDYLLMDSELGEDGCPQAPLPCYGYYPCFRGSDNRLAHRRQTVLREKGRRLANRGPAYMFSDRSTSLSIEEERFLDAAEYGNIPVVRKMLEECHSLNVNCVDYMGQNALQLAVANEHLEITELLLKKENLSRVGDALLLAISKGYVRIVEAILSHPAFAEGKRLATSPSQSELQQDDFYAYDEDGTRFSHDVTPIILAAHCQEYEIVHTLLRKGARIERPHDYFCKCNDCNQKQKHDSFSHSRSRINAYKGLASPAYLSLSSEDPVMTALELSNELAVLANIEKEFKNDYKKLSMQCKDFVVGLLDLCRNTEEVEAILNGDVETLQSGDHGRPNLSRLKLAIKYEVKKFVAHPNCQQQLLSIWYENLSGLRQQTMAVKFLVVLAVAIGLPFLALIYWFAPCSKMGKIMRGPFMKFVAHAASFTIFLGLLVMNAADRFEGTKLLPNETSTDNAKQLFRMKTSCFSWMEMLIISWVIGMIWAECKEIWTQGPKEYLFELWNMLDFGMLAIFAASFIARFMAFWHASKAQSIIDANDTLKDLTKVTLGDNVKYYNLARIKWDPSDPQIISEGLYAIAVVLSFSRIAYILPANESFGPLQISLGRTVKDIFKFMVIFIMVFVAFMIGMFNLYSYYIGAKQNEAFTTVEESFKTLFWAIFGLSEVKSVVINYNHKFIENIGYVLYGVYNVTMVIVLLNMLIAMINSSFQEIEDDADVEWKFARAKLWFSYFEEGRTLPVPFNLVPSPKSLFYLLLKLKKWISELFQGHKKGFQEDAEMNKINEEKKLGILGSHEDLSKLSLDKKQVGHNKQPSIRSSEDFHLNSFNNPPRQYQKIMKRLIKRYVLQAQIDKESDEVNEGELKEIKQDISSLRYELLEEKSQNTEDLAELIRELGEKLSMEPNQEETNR
# Assay: Evaluation of TRPC6 channel inhibitory activity (1), FLIPR Calcium 5 Assay Kit, OAG stimulation (Compound Nos. 1-1293)
# Type: cell-based
# Settings: Human TRPC6 stably-expressing cells, OAG 30 μM, FLIPR Calcium 5 Assay Kit; read-out: Inhibitory activity (pIC50 class) (converted)
# Outline: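 TRPC6 (human) stable cells, 24 h culture; Ca5 no-wash dye + probenecid 30 min; cpd 20 min; OAG 30 μM final; ΔF (pre-cpd min to post-OAG max); 0%/100% = no cpd / no cpd + no OAG; 4PL → pIC50, binned +/++/+++.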
row,IC50 [nM],Structure (SMILES)
1,10 to 1000,"Cn1nc(C2CCOCC2)cc1Oc1cc(F)ccc1-c1ncc(CCN)cn1 [compound 1009, 2-[2-[4-fluoro-2-[2-methyl-5-(oxan-4-yl)pyrazol-3-yl]oxyphenyl]pyrimidin-5-yl]ethanamine]"
2,< 10,"Cn1nc(C2CCOCC2)cc1Oc1cc(F)ccc1-c1ccc(CCN)cn1 [compound 1010, 2-[6-[4-fluoro-2-[2-methyl-5-(oxan-4-yl)pyrazol-3-yl]oxyphenyl]pyridin-3-yl]ethanamine]"
3,< 10,"CC(C)c1cc(Oc2cc(F)ccc2-c2ccc(CN)cn2)n(C)n1 [compound 1011, [6-[4-fluoro-2-(2-methyl-5-propan-2-ylpyrazol-3-yl)oxyphenyl]pyridin-3-yl]methanamine]"
4,< 10,"CC(C)c1cc(Oc2cc(F)ccc2-c2ncc(CN)cn2)n(C)n1 [compound 1012, [2-[4-fluoro-2-(2-methyl-5-propan-2-ylpyrazol-3-yl)oxyphenyl]pyrimidin-5-yl]methanamine]"
5,< 10,"CC(C)c1cc(Oc2cc(F)ccc2-c2ncc(CCN)cn2)n(C)n1 [compound 1013, 2-[2-[4-fluoro-2-(2-methyl-5-propan-2-ylpyrazol-3-yl)oxyphenyl]pyrimidin-5-yl]ethanamine]"
6,< 10,"CC(C)c1cc(Oc2cc(F)ccc2-c2ccc(CCN)cn2)n(C)n1 [compound 1014, 2-[6-[4-fluoro-2-(2-methyl-5-propan-2-ylpyrazol-3-yl)oxyphenyl]pyridin-3-yl]ethanamine]"
7,10 to 1000,"Cn1nc(C2CC2)cc1Oc1cc(F)ccc1-c1ncc(CN)cn1 [compound 1015, [2-[2-(5-cyclopropyl-2-methylpyrazol-3-yl)oxy-4-fluorophenyl]pyrimidin-5-yl]methanamine]"
8,10 to 1000,"Cn1nc(C2CC2)cc1Oc1cc(F)ccc1-c1ccc(CN)cn1 [compound 1016, [6-[2-(5-cyclopropyl-2-methylpyrazol-3-yl)oxy-4-fluorophenyl]pyridin-3 - yl]methanamine]"
9,< 10,"Cn1nc(C2CC2)cc1Oc1cc(F)ccc1-c1ncc(CCN)cn1 [compound 1017, 2-[2-[2-(5-cyclopropyl-2-methylpyrazol-3-yl)oxy-4-fluorophenyl]pyrimidin-5-yl]ethanamine]"
10,< 10,"Cn1nc(C2CC2)cc1Oc1cc(F)ccc1-c1ccc(CCN)cn1 [compound 1018, 2-[6-[2-(5-cyclopropyl-2-methylpyrazol-3-yl)oxy-4-fluorophenyl]pyridin-3-yl]ethanamine]"
11,10 to 1000,"NCCc1cnc(-c2ccc(F)cc2Oc2cnn(CC(F)(F)F)c2)nc1 [compound 1019, 2-[2-[4-fluoro-2-[1-(2,2,2-trifluoroethyl)pyrazol-4-yl]oxyphenyl]pyrimidin-5-yl]ethanamine]"
12,10 to 1000,"CC(C)n1cc(Oc2cc(Cl)ccc2-c2ncc(CCN)cn2)cn1 [compound 1020, 2-[2-[4-chloro-2-(1-propan-2-ylpyrazol-4-yl)oxyphenyl]pyrimidin-5-yl]ethanamine]"
13,10 to 1000,"CC(C)Cn1cc(Oc2cc(Cl)ccc2-c2ncc(CCN)cn2)cn1 [compound 1021, 2-[2-[4-chloro-2-[1-(2-methylpropyl)pyrazol-4-yl]oxyphenyl]pyrimidin-5-yl]ethanamine]"
14,> 1000,"NCCc1cnc(-c2ccc(Cl)cc2Oc2cnn(CC(F)F)c2)nc1 [compound 1022, 2-[2-[4-chloro-2-[1-(2,2-difluoroethyl)pyrazol-4-yl]oxyphenyl]pyrimidin-5-yl]ethanamine]"
15,10 to 1000,"NCCc1cnc(-c2ccc(Cl)cc2Oc2cnn(CC(F)(F)F)c2)nc1 [compound 1023, 2-[2-[4-chloro-2-[1-(2,2,2-trifluoroethyl)pyrazol-4-yl]oxyphenyl]pyrimidin-5-yl]ethanamine]"
16,10 to 1000,"NCCc1cnc(-c2ccc(Cl)cc2Oc2cnn(-c3ccccn3)c2)nc1 [compound 1024, 2-[2-[4-chloro-2-(1-pyridin-2-ylpyrazol-4-yl)oxyphenyl]pyrimidin-5-yl]ethanamine]"
17,< 10,"CCc1cc(C(=O)c2cc(C#N)ccc2-c2ncc(CCN)cn2)n(C)n1 [compound 1025, 4-[5-(2-aminoethyl)pyrimidin-2-yl]-3-(5-ethyl-2-methylpyrazole-3-carbonyl)benzonitrile]"

row,IC50 [nM],Structure (SMILES)
1,< 10,"CCc1cc(C(=O)c2cc(C#N)ccc2-c2ncc(CN)cn2)n(C)n1 [compound 1026, 4-[5-(aminomethyl)pyrimidin-2-yl]-3-(5-ethyl-2-methylpyrazole-3-carbonyl)benzonitrile]"
2,< 10,"Cn1nc(N2CCOCC2)cc1C(=O)c1cc(C#N)ccc1-c1ncc(CCN)cn1 [compound 1027, 4-[5-(2-aminoethyl)pyrimidin-2-yl]-3-(2-methyl-5-morpholin-4-ylpyrazole-3-carbonyl)benzonitrile]"
3,< 10,"Cn1nc(N2CCOCC2)cc1C(=O)c1cc(C#N)ccc1-c1ccc(CN)cn1 [compound 1029, 4-[5-(aminomethyl)pyridin-2-yl]-3-(2-methyl-5-morpholin-4-ylpyrazole-3-carbonyl)benzonitrile]"
4,< 10,"Cn1nc(C(C)(C)C)cc1C(=O)c1cc(C#N)ccc1-c1ncc(CCN)cn1 [compound 1031, 4-[5-(2-aminoethyl)pyrimidin-2-yl]-3-(5-tert-butyl-2-methylpyrazole-3-carbonyl)benzonitrile]"
5,< 10,"CCN(CC)c1cc(C(=O)c2cc(C#N)ccc2-c2ncc(CCN)cn2)n(C)n1 [compound 1032, 4-[5-(2-aminoethyl)pyrimidin-2-yl]-3-[5-(diethylamino)-2-methylpyrazole-3-carbonyl]benzonitrile]"
6,< 10,"Cc1nn(CC2CC2)cc1C(=O)c1cc(C#N)ccc1-c1ncc(CCN)cn1 [compound 1033, 4-[5-(2-aminoethyl)pyrimidin-2-yl]-3-[1-(cyclopropylmethyl)-3-methylpyrazole-4-carbonyl]benzonitrile]"
7,10 to 1000,"Cc1c(C(=O)c2cc(C#N)ccc2-c2ncc(CCN)cn2)cnn1CC1CC1 [compound 1034, 4-[5-(2-aminoethyl)pyrimidin-2-yl]-3-[1-(cyclopropylmethyl)-5-methylpyrazole-4-carbonyl]benzonitrile]"
8,< 10,"Cc1nn(CC2CC2)cc1C(=O)c1cc(C#N)ccc1-c1ncc(CN)cn1 [compound 1035, 4-[5-(aminomethyl)pyrimidin-2-yl]-3-[1-(cyclopropylmethyl)-3-methylpyrazole-4-carbonyl]benzonitrile]"
9,> 1000,"Cc1c(C(=O)c2cc(C#N)ccc2-c2ncc(CN)cn2)cnn1CC1CC1 [compound 1036, 4-[5-(aminomethyl)pyrimidin-2-yl]-3-[1-(cyclopropylmethyl)-5-methylpyrazole-4-carbonyl]benzonitrile]"
10,< 10,"N#Cc1ccc(-c2ncc(CCN)cn2)c(C(=O)c2cnn(-c3ccccn3)c2)c1 [compound 1037, 4-[5-(2-aminoethyl)pyrimidin-2-yl]-3-(1-pyridin-2-ylpyrazole-4-carbonyl)benzonitrile]"
11,10 to 1000,"N#Cc1ccc(-c2ncc(CN)cn2)c(C(=O)c2cnn(-c3ccccn3)c2)c1 [compound 1038, 4-[5-(aminomethyl)pyrimidin-2-yl]-3-(1-pyridin-2-ylpyrazole-4-carbonyl)benzonitrile]"
12,10 to 1000,"N#Cc1ccc(-c2ncc(CCN)cn2)c(C(=O)c2cnc(C(F)(F)F)s2)c1 [compound 1039, 4-[5-(2-aminoethyl)pyrimidin-2-yl]-3-[2-(trifluoromethyl)-1,3-thiazole-5-carbonyl]benzonitrile]"
13,10 to 1000,"Cc1nc(C(=O)c2cc(C#N)ccc2-c2ncc(CCN)cn2)cc(N2CCOCC2)n1 [compound 1040, 4-[5-(2-aminoethyl)pyrimidin-2-yl]-3-(2-methyl-6-morpholin-4-ylpyrimidine-4-carbonyl)benzonitrile]"
14,10 to 1000,"N#Cc1ccc(-c2ncc(CCN)cn2)c(C(=O)c2cnn(C3CCOCC3)c2)c1 [compound 1041, 4-[5-(2-aminoethyl)pyrimidin-2-yl]-3-[1-(oxan-4-yl)pyrazole-4-carbonyl]benzonitrile]"
15,< 10,"CN(C)c1cc(C(=O)c2cc(C#N)ccc2-c2ncc(CCN)cn2)n(C)n1 [compound 1043, 4-[5-(2-aminoethyl)pyrimidin-2-yl]-3-[5-(dimethylamino)-2-methylpyrazole-3-carbonyl]benzonitrile]"
16,< 10,"CC(C)n1cc(C(=O)c2cc(C#N)ccc2-c2ncc(CCN)cn2)cn1 [compound 1044, 4-[5-(2-aminoethyl)pyrimidin-2-yl]-3-(1-propan-2-ylpyrazole-4-carbonyl)benzonitrile]"
